From patent publication US9708334B2, “Substituted 2,4,5,6-tetrahydropyrrolo[3,4-c]pyrazole and 4,5,6,7-tetrahydro-2H-pyrazolo[4,3-c]pyridine compounds as GlyT1 inhibitors” (DART NEUROSCIENCE (CAYMAN) LTD., priority 2014, dated 2017)

biological target: T1, GlyT1 (Homo sapiens, UniProt P48067); assay: Glycine Transporter 1 (GlyT1) uptake assay, scintillation proximity assay of [14C]-glycine uptake; assay type: cell-based; settings: SPA, four parameter logistic fit, read-out: GlyT1 (pIC50) (converted)
T1 construct: expressed in transfected cells
T1 sequence (P48067 1-706): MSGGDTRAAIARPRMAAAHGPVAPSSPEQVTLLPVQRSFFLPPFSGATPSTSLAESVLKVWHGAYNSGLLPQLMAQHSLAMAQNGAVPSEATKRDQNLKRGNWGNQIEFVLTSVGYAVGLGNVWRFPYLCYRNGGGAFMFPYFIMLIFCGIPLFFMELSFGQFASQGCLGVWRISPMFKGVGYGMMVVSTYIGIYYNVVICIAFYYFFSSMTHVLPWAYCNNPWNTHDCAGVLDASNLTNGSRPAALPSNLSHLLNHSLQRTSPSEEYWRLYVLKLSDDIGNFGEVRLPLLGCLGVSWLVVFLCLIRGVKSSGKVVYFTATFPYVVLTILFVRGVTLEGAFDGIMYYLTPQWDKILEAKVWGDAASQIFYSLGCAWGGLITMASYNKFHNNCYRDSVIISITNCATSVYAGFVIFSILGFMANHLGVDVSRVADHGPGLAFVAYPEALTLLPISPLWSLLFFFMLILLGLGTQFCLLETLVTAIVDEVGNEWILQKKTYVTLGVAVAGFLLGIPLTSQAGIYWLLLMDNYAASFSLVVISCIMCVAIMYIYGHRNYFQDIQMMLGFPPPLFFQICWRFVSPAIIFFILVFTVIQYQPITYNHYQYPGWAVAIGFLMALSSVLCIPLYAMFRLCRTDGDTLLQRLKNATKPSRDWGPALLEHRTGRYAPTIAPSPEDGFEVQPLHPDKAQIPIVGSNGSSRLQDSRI
Procedure, shortened: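 IC50 values derive from four-parameter logistic curves fitted to dose-response data. Uptake of [14C]-glycine measured in scintillation proximity format.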

Compared with C[C@H](Oc1ccc(C#N)c(Cl)c1C(=O)N1Cc2cn(-c3ccccc3F)nc2C1)C(F)(F)F [Example 269, 2-Chloro-3-[2-(2-fluorophenyl)-2H 4H 5H 6H-pyrrolo[3,4-c]pyrazole-5-carbonyl]-4-{[(2S)-1 1 1-trifluoropropan-2-yl]oxy}benzonitrile], Cc1cc(F)cnc1-n1cc2c(n1)CN(C(=O)c1c(O[C@@H](C)C(F)(F)F)ccc(C#N)c1Cl)C2 [Example 299, 2-Chloro-3-[2-(5-fluoro-3-methylpyridin-2-yl)-2H 4H 5H 6H-pyrrolo[3,4-c]pyrazole-5-carbonyl]-4-{[(2S)-1 1 1-trifluoropropan-2-yl]oxy}benzonitrile] is higher in IC50: < 100 nM for the first, 100 to 1000 nM for the second.

COc1c(C#N)ccc(O[C@@H](C)C(F)(F)F)c1C(=O)N1CCc2nn(-c3ccnc(C(F)(F)F)c3)cc2C1 [Example 241, 2-Methoxy-3-{2-[2-(trifluoromethyl)pyridin-4-yl]-2H 4H 5H 6H 7H-pyrazolo[4,3-c]pyridine-5-carbonyl}-4-{[(2S)-1 1 1-trifluoropropan-2-yl]oxy}benzonitrile] and COc1c(C#N)ccc(OC(C)C(F)(F)F)c1C(=O)N1CCc2nn(-c3ncc(F)cc3F)cc2C1 (stereo not shown) [Example 233, 3-[2-(3 5-Difluoropyridin-2-yl)-2H 4H 5H 6H 7H-pyrazolo[4,3-c]pyridine-5-carbonyl]-2-methoxy-4-[(1 1 1-trifluoropropan-2-yl)oxy]benzonitrile] fall in the same range of IC50: 100 to 1000 nM for the first, 100 to 1000 nM for the second.

Compared with COc1c(C#N)ccc(C2(F)CCCC2)c1C(=O)N1Cc2cn(-c3cncc(F)c3)nc2C1 [Example 377, 4-(1-Fluorocyclopentyl)-3-[2-(5-fluoropyridin-3-yl)-2H 4H 5H 6H-pyrrolo[3,4-c]pyrazole-5-carbonyl]-2-methoxybenzonitrile], N#Cc1ccc(OCC(F)(F)F)c(C(=O)N2Cc3cn(-c4cncc(F)c4)nc3C2)c1Cl [Example 25, 2-Chloro-3-[2-(5-fluoropyridin-3-yl)-2H 4H 5H 6H-pyrrolo[3,4-c]pyrazole-5-carbonyl]-4-(2 2 2-trifluoroethoxy)benzonitrile] is higher in IC50: < 100 nM for the first, 100 to 1000 nM for the second.

CC(Oc1ccc(S(C)(=O)=O)cc1C(=O)N1CCc2n[nH]c(-c3ccccc3)c2C1)C(F)(F)F (stereo not shown) [Example 573, 5-{5-Methanesulfonyl-2-[(1 1 1-trifluoropropan-2-yl)oxy]benzoyl}-3-phenyl-2H 4H 5H 6H 7H-pyrazolo[4,3-c]pyridine] and CC(Oc1ccc(S(C)(=O)=O)cc1C(=O)N1CCc2c(c(C(F)(F)F)nn2-c2ccccc2)C1)C(F)(F)F (stereo not shown) [Example 168, 5-{5-Methanesulfonyl-2-[(1 1 1-trifluoropropan-2-yl)oxy]benzoyl}-1-phenyl-3-(trifluoromethyl)-1H 4H 5H 6H 7H-pyrazolo[4,3-c]pyridine] fall in the same range of IC50: 1000 to 10000 nM for the first, 1000 to 10000 nM for the second.

CC(C)Cn1cc2c(n1)CN(C(=O)c1cc(S(C)(=O)=O)ccc1-c1cccc(F)c1)C2 [Example 427, 5-[2-(3-Fluorophenyl)-5-methanesulfonylbenzoyl]-2-(2-methylpropyl)-2H 4H 5H 6H-pyrrolo[3,4-c]pyrazole] and CS(=O)(=O)c1ccc(-c2cccc(F)c2)c(C(=O)N2Cc3cn(CC4CCC4)nc3C2)c1 [Example 426, 2-(Cyclobutylmethyl)-5-[2-(3-fluorophenyl)-5-methanesulfonylbenzoyl]-2H 4H 5H 6H-pyrrolo[3,4-c]pyrazole] cannot be ordered by IC50: < 100 nM for the first, < 100 nM for the second.

COc1c(C#N)ccc(OC(C)C(F)(F)F)c1C(=O)N1CCc2c(cnn2-c2ccc(F)cc2F)C1 (stereo not shown) [Example 575, 3-[1-(2 4-Difluorophenyl)-1H 4H 5H 6H 7H-pyrazolo[4,3-c]pyridine-5-carbonyl]-2-methoxy-4-[(1 1 1-trifluoropropan-2-yl)oxy]benzonitrile] and COc1c(C#N)ccc(O[C@@H](C)C(F)(F)F)c1C(=O)N1Cc2cn(-c3ncc(F)cc3C)nc2C1 [Example 298, 3-[2-(5-Fluoro-3-methylpyridin-2-yl)-2H 4H 5H 6H-pyrrolo[3,4-c]pyrazole-5-carbonyl]-2-methoxy-4-{[(2 S)-1 1 1-trifluoropropan-2-yl]oxy}benzonitrile] cannot be ordered by IC50: < 100 nM for the first, < 100 nM for the second.

First: CC(Oc1ccc(S(C)(=O)=O)cc1C(=O)N1CCc2c(cnn2C)C1)C(F)(F)F (stereo not shown) [Example 161, 5-{5-Methanesulfonyl-2-[(1 1 1-trifluoropropan-2-yl)oxy]benzoyl}-1-methyl-1H 4H 5H 6H 7H-pyrazolo[4,3-c]pyridine]
Second: CNC(=O)c1ccc(OC(C)C(F)(F)F)c(C(=O)N2CCc3nn(-c4ccc(F)cc4)cc3C2)c1 (stereo not shown) [Example 482, 3-[2-(4-Fluorophenyl)-2H 4H 5H 6H 7H-pyrazolo[4,3-c]pyridine-5-carbonyl]-N-methyl-4-[(1 1 1-trifluoropropan-2-yl)oxy]benzamide]
The IC50 of the first is higher: 1000 to 10000 nM for the first, 100 to 1000 nM for the second.

CC(C)(C)COc1ccc(C#N)cc1C(=O)N1Cc2cn(-c3ccc(F)cc3)nc2C1 [Example 526, 4-(2 2-Dimethylpropoxy)-3-[2-(4-fluorophenyl)-2H 4H 5H 6H-pyrrolo[3,4-c]pyrazole-5-carbonyl]benzonitrile] and CCC(CC)Oc1ccc(C#N)c(OC)c1C(=O)N1Cc2cn(-c3ccc(F)cc3)nc2C1 [Example 518, 3-[2-(4-Fluorophenyl)-2H 4H 5H 6H-pyrrolo[3,4-c]pyrazole-5-carbonyl]-2-methoxy-4-(pentan-3-yloxy)benzonitrile] cannot be ordered by IC50: < 100 nM for the first, < 100 nM for the second.

Compared with CC(C)Oc1ccc(C#N)cc1C(=O)N1Cc2cn(-c3ccnc(C#N)c3)nc2C1 [Example 468, 4-{5-[5-Cyano-2-(propan-2-yloxy)benzoyl]-2H 4H 5H 6H-pyrrolo[3,4-c]pyrazol-2-yl}pyridine-2-carbonitrile], COc1cc(-n2cc3c(n2)CN(C(=O)c2c(O[C@@H](C)C(F)(F)F)ccc(C#N)c2OC)C3)ccn1 [Example 277, 2-Methoxy-3-[2-(2-methoxypyridin-4-yl)-2H 4H 5H 6H-pyrrolo[3,4-c]pyrazole-5-carbonyl]-4-{[(2S)-1 1 1-trifluoropropan-2-yl]oxy}benzonitrile] is lower in IC50: 100 to 1000 nM for the first, < 100 nM for the second.

First: CC(Oc1ccc(C#N)c(Cl)c1C(=O)N1CCc2nn(-c3cncc(F)c3)cc2C1)C(F)(F)F (stereo not shown) [Example 153, 2-Chloro-3-[2-(5-fluoropyridin-3-yl)-2H 4H 5H 6H 7H-pyrazolo[4,3-c]pyridine-5-carbonyl]-4-[(1 1 1-trifluoropropan-2-yl)oxy]benzonitrile]
Second: CC(Oc1ccc(C#N)c(Cl)c1C(=O)N1CCc2nn(C)c(C(F)(F)F)c2C1)C(F)(F)F (stereo not shown) [Example 186, 2-Chloro-3-[2-methyl-3-(trifluoromethyl)-2H 4H 5H 6H 7H-pyrazolo[4,3-c]pyridine-5-carbonyl]-4-[(1 1 1-trifluoropropan-2-yl)oxy]benzonitrile]
The IC50 of the first is lower: < 100 nM for the first, 1000 to 10000 nM for the second.

First: N#Cc1ccc(N2CCC(F)(F)CC2)c(C(=O)N2CCc3nn(-c4ccccc4)cc3C2)c1Cl [Example 502, 2-Chloro-4-(4 4-difluoropiperidin-1-yl)-3-{2-phenyl-2H 4H 5H 6H 7H-pyrazolo[4,3-c]pyridine-5-carbonyl}benzonitrile]
Second: COc1c(C#N)ccc(C2(F)COC2)c1C(=O)N1CCc2nn(-c3ccccc3)cc2C1 [Example 487]
The IC50 of the first is lower: 100 to 1000 nM for the first, 1000 to 10000 nM for the second.

First: COc1c(C#N)ccc(O[C@@H](C)C(F)(F)F)c1C(=O)N1Cc2cn(-c3ccccn3)nc2C1 [Example 263, 2-Methoxy-3-[2-(pyridin-2-yl)-2H 4H 5H 6H-pyrrolo[3,4-c]pyrazole-5-carbonyl]-4-{[(2S)-1 1 1-trifluoropropan-2-yl]oxy}benzonitrile]
Second: COc1c(C#N)ccc(OCC2(C)COC2)c1C(=O)N1Cc2cn(-c3ccc(F)c(C)n3)nc2C1 [Example 536, 3-[2-(5-Fluoro-6-methylpyridin-2-yl)-2H 4H 5H 6H-pyrrolo[3,4-c]pyrazole-5-carbonyl]-2-methoxy-4-[(3-methyloxetan-3-yl)methoxy]benzonitrile]
The IC50 of the first is lower: < 100 nM for the first, 100 to 1000 nM for the second.

CS(=O)(=O)c1ccc(N2CCC(F)(F)CC2)c(C(=O)N2Cc3cn(CC4CCC4)nc3C2)c1 [Example 431, 1-{2-[2-(Cyclobutylmethyl)-2H 4H 5H 6H-pyrrolo[3,4-c]pyrazole-5-carbonyl]-4-methanesulfonylphenyl}-4 4-difluoropiperidine] and CCS(=O)(=O)c1ccc(N2CCC(F)(F)CC2)c(C(=O)N2Cc3cn(-c4ccc(F)cn4)nc3C2)c1 [Example 135, 2-{5-[2-(4 4-Difluoropiperidin-1-yl)-5-(ethanesulfonyl)benzoyl]-2H 4H 5H 6H-pyrrolo[3,4-c]pyrazol-2-yl}-5-fluoropyridine] cannot be ordered by IC50: < 100 nM for the first, < 100 nM for the second.

First: CC(Oc1ccc(C(N)=O)c(Cl)c1C(=O)N1Cc2cn(-c3ccc(F)cc3)nc2C1)C(F)(F)F (stereo not shown) [Example 484, 2-Chloro-3-[2-(4-fluorophenyl)-2H 4H 5H 6H-pyrrolo[3,4-c]pyrazole-5-carbonyl]-4-[(1 1 1-trifluoropropan-2-yl)oxy]benzamide]
Second: N#Cc1ccc(-c2cccnc2)c(C(=O)N2Cc3cn(-c4cncc(F)c4)nc3C2)c1 [Example 553]
The IC50 of the first is lower: < 100 nM for the first, 100 to 1000 nM for the second.
